For orientation: pest or weed control means the degree to which the test organism was suppressed or injured, in per cent. Read a high pest or weed control as a strong effect. One may read the inhibition of growth as how much of the control response was suppressed. A lower inhibition of growth goes with a response near the control. For orientation: melting point means the temperature, or range, at which the solid turns liquid.

The values below come from patent US11083196B2, “Microbiocidal oxadiazole derivatives” (SYNGENTA PARTICIPATIONS AG, priority 2016, dated 2021).

The test system of data set [1] is Phakopsora pachyrhizi. Description: Fungicidal activity against Phakopsora pachyrhizi / soybean / leaf disc preventative (Asian soybean rust). Conditions: foliar, 288 h, soybean leaf disks, inoculated one day after application, assessed 12-14 days after application, compared to untreated control. It counts as in vivo. The method, then: Leaf disks or leaf segments of various plant species are cut from plants grown in a greenhouse. The cut leaf disks or segments are placed in multiwell plates (24-well format) onto water agar. The leaf disks are sprayed with a test solution before (preventative) or after (curative) inoculation. Compounds to be tested are prepared as DMSO solutions (max. 10 mg/ml) which are diluted to the appropriate concentration with 0.025% Tween20 just before spraying. The inoculated leaf disks or segments are incubated under defined conditions (temperature, relative humidity, light, etc.) according to the respective test system. A single evaluation of disease level is carried out 3 to 14 days after inoculation, depending on the pathosystem. Percent disease control relative to the untreated check leaf disks or segments is then calculated. Soybean leaf disks are placed on water agar in multiwell plates (24-well format) and sprayed with the formulated test compound diluted in water. One day after application leaf discs are inoculated by spraying a spore suspension on the lower leaf surface. After an incubation period in a climate cabinet of 24-36 hours in darkness at 20° C. and 75% rh leaf disc are kept at 20° C. with 12 h light/day and 75% rh. The activity of a compound is assessed as percent disease control compared to untreated when an appropriate level of disease damage appears in untreated check leaf disks (12-14 days after application).

Data set [2] deals with Puccinia recondita f. sp. tritici. Description: Fungicidal activity against Puccinia recondita f. sp. tritici / wheat / leaf disc curative (brown rust). It counts as in vivo. As to conditions: foliar, 144 h, wheat leaf segments cv. Kanzler, applied 1 day after inoculation, assessed 6-8 days after application, compared to untreated control. The procedure:
Leaf disks or leaf segments of various plant species are cut from plants grown in a greenhouse. The cut leaf disks or segments are placed in multiwell plates (24-well format) onto water agar. The leaf disks are sprayed with a test solution before (preventative) or after (curative) inoculation. Compounds to be tested are prepared as DMSO solutions (max. 10 mg/ml) which are diluted to the appropriate concentration with 0.025% Tween20 just before spraying. The inoculated leaf disks or segments are incubated under defined conditions (temperature, relative humidity, light, etc.) according to the respective test system. A single evaluation of disease level is carried out 3 to 14 days after inoculation, depending on the pathosystem. Percent disease control relative to the untreated check leaf disks or segments is then calculated. Wheat leaf segments cv. Kanzler are placed on agar in multiwell plates (24-well format). The leaf segments are inoculated with a spore suspension of the fungus. Plates are stored in darkness at 19° C. and 75% rh. The formulated test compound diluted in water is applied 1 day after inoculation. The leaf segments are incubated at 19° C. and 75% rh under a light regime of 12 h light/12 h darkness in a climate cabinet and the activity of a compound is assessed as percent disease control compared to untreated when an appropriate level of disease damage appears in untreated check leaf segments (6-8 days after application).

For data set [3] the test system is unchanged. The experiment in a line: Fungicidal activity against Puccinia recondita f. sp. tritici / wheat / leaf disc preventative (brown rust). In kind it is in vivo. Conditions: foliar, 168 h, wheat leaf segments cv. Kanzler, inoculated 1 day after application, assessed 7-9 days after application, compared to untreated control. The procedure:
Leaf disks or leaf segments of various plant species are cut from plants grown in a greenhouse. The cut leaf disks or segments are placed in multiwell plates (24-well format) onto water agar. The leaf disks are sprayed with a test solution before (preventative) or after (curative) inoculation. Compounds to be tested are prepared as DMSO solutions (max. 10 mg/ml) which are diluted to the appropriate concentration with 0.025% Tween20 just before spraying. The inoculated leaf disks or segments are incubated under defined conditions (temperature, relative humidity, light, etc.) according to the respective test system. A single evaluation of disease level is carried out 3 to 14 days after inoculation, depending on the pathosystem. Percent disease control relative to the untreated check leaf disks or segments is then calculated. Wheat leaf segments cv. Kanzler are placed on agar in multiwell plates (24-well format) and sprayed with the formulated test compound diluted in water. The leaf disks are inoculated with a spore suspension of the fungus 1 day after application. The inoculated leaf segments are incubated at 19° C. and 75% rh under a light regime of 12 h light/12 h darkness in a climate cabinet and the activity of a compound is assessed as percent disease control compared to untreated when an appropriate level of disease damage appears in untreated check leaf segments (7-9 days after application).

Data set [4] has as its system Glomerella lagenarium (Colletotrichum lagenarium). Description: Fungicidal activity against Glomerella lagenarium (Colletotrichum lagenarium), liquid culture / cucumber / preventative (anthracnose). In kind it is cell-based. As to conditions: Colletotrichum orbiculare, liquid culture (PDB), growth inhibition measured photometrically 3-4 days after application, compared to untreated control. An outline of the steps:
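Glomerella lagenarium conidia in potato dextrose broth were exposed in 96-well plates to test compound diluted from DMSO stock with 0.025% Tween20 and incubated at 24 °C. Growth inhibition was read photometrically 3–4 days after application, as percent activity relative to untreated check.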

Consider `CCCC1=NOC(c2ccc(-c3noc(C(F)(F)F)n3)cc2)C1` (stereo not drawn) [Compound A-6, 3-[4-(3-propyl-4,5-dihydroisoxazol-5-yl)phenyl]-5-(trifluoromethyl)-1,2,4-oxadiazole], for which the melting point fell in the range of 79 to 83 °C. Moreover, in data set [1], the pest or weed control at 200 ppm was no less than 80%. Also, the pest or weed control at 200 ppm in data set [2] is no less than 80%. This compound had a pest or weed control at 200 ppm in data set [3] of no less than 80%. The compound also had an inhibition of growth at 20 ppm in data set [4] of no less than 80%.

`CC1COC(c2ccc(-c3noc(C(F)(F)F)n3)cc2)=N1` (stereo not drawn) [Compound A-1, 3-[4-(4-methyl-4,5-dihydrooxazol-2-yl)phenyl]-5-(trifluoromethyl)-1,2,4-oxadiazole]: the melting point lay within 77 to 80 °C. Also, the pest or weed control at 200 ppm in data set [1] was no less than 80%. In data set [2], this compound registered a pest or weed control at 200 ppm of no less than 80%. Further, the pest or weed control at 200 ppm in data set [3] is no less than 80%. In data set [4], this compound had an inhibition of growth at 20 ppm of no less than 80%.

The compound `CC1=NOC(c2ccc(-c3noc(C(F)(F)F)n3)cc2)C1` (stereo not drawn) [Compound A-4, 3-[4-(3-methyl-4,5-dihydroisoxazol-5-yl)phenyl]-5-(trifluoromethyl)-1,2,4-oxadiazole] had a melting point of 89 to 92 °C. The same compound had a pest or weed control at 200 ppm in data set [1] of no less than 80%. Also, the pest or weed control at 200 ppm in data set [2] is no less than 80%. This compound yielded a pest or weed control at 200 ppm in data set [3] of no less than 80%. Also, the inhibition of growth at 20 ppm in data set [4] is no less than 80%.

The compound `CC1(C)CN=C(c2ccc(-c3noc(C(F)(F)F)n3)cc2)O1` [Compound A-21, 3-[4-(5,5-dimethyl-4H-oxazol-2-yl)phenyl]-5-(trifluoromethyl)-1,2,4-oxadiazole] gave a melting point of 178 to 180 °C. For the same compound, the pest or weed control at 200 ppm in data set [1] is no less than 80%. Moreover, in data set [2], the pest or weed control at 200 ppm was no less than 80%. For the same compound, the pest or weed control at 200 ppm in data set [3] was no less than 80%. In data set [4], the inhibition of growth at 20 ppm is no less than 80%.

On to `CC(C)(C)[S+]([O-])NC1CSC(c2ccc(-c3noc(C(F)(F)F)n3)cc2)=N1` (stereo not drawn) [Compound A-29, 2-methyl-N-[2-[4-[5-(trifluoromethyl)-1,2,4-oxadiazol-3-yl]phenyl]-4,5-dihydrothiazol-4-yl]propane-2-sulfinamide], for which the pest or weed control at 200 ppm in data set [1], in data set [2] and in data set [3] was no less than 80% each time. This compound also gave an inhibition of growth at 20 ppm in data set [4] of no less than 80%.

`CCC1=NOC(c2ccc(-c3noc(C(F)(F)F)n3)cc2)C1` (stereo not drawn) [Compound A-5, 3-[4-(3-ethyl-4,5-dihydroisoxazol-5-yl)phenyl]-5-(trifluoromethyl)-1,2,4-oxadiazole] had a melting point of 75 to 80 °C. In addition, the pest or weed control at 200 ppm in data set [1] is no less than 80%. Further, the pest or weed control at 200 ppm in data set [2] is no less than 80%. Also, the pest or weed control at 200 ppm in data set [3] is no less than 80%. Further, the inhibition of growth at 20 ppm in data set [4] was no less than 80%.

In turn, `COCC1=NOC(c2ccc(-c3noc(C(F)(F)F)n3)cc2)C1` (stereo not drawn) [Compound A-9, 3-[4-[3-(methoxymethyl)-4,5-dihydroisoxazol-5-yl]phenyl]-5-(trifluoromethyl)-1,2,4-oxadiazole] returned a melting point of 59 to 63 °C. Further, in data set [1], the pest or weed control at 200 ppm is no less than 80%. The same compound showed a pest or weed control at 200 ppm in data set [2] of no less than 80%. In data set [3], the pest or weed control at 200 ppm is no less than 80%. The same compound gave an inhibition of growth at 20 ppm in data set [4] of no less than 80%.

Take `FC(F)(F)c1nc(-c2ccc(-c3ccnc(Cl)c3)cc2)no1` [Compound D-26, 3-[4-(2-chloro-4-pyridyl)phenyl]-5-(trifluoromethyl)-1,2,4-oxadiazole]: the melting point was in the range of 110 to 115 °C. Further, in data set [1], the pest or weed control at 200 ppm was no less than 80%. In addition, the pest or weed control at 200 ppm in data set [2] is no less than 80%. Further, in data set [3], the pest or weed control at 200 ppm was no less than 80%. This compound showed an inhibition of growth at 20 ppm in data set [4] of no less than 80%.
